Source: US20050009924A1 (priority 2003, published 2005)
Like-named read-outs stand apart in the source and are kept apart here.

What was measured:
rat glioma C6 cells = experiment: Cytotoxicity assay (XTT colorimetric), C6 cells; type: cell-based
human hepatoma G2 cells = experiment: Cytotoxicity assay (XTT colorimetric), Hep G2; type: cell-based
[1] = tested on: hepatitis B virus transfected hepatoma cell lines, HepG 2.2.15 cells; experiment: Cytotoxicity assay, 2.2.15 cells; type: cell-based, human

SMILES	IC50 (rat glioma C6 cells; 48 h of drug exposure) [µM]	IC50 (human hepatoma G2 cells; 48 h of drug exposure) [µM]	IC50 ([1]; 48 h of drug exposure) [µM]	IC50 (rat glioma C6 cells) [µM]	IC50 (human hepatoma G2 cells) [µM]	IC50 [1] [µM]
CC(C)CNc1cccc2c1C(=O)c1c(NCC(C)C)cccc1C2=O [Vd]	1.32 ± 0.01	> 20	> 20			
CCCCCCNc1cccc2c1C(=O)c1c(NCCCCCC)cccc1C2=O [Ve]				> 20	> 20	> 20
CC(C)Nc1cccc2c1C(=O)c1c(NC(C)C)cccc1C2=O [Vf, 1,8-Bis(isopropylamine)-anthraquinone]	1.24 ± 0.01	> 20	> 20			
O=C1c2cccc(NCCO)c2C(=O)c2c(NCCO)cccc21 [Vg]				0.02 ± 0.01	> 20	> 20
O=C1c2cccc(NCCCO)c2C(=O)c2c(NCCCO)cccc21 [Vh]	1 ± 0.01	> 20	> 20			
O=C1c2cccc(NCCCCO)c2C(=O)c2c(NCCCCO)cccc21 [Vi]	0.41 ± 0.02	1.65	> 20			
CN(C)CCNc1cccc2c1C(=O)c1c(NCCN(C)C)cccc1C2=O [Vj]	0.15 ± 0.04	0.16	8.55			
NCCCNc1cccc2c1C(=O)c1c(NCCCN)cccc1C2=O [Vk]	> 20	11.4 ± 0.17	> 20			
NCCCCNc1cccc2c1C(=O)c1c(NCCCCN)cccc1C2=O [Vl]	> 20	11.5 ± 0.34	> 20			
O=C1c2cccc(NC3CCCC3)c2C(=O)c2c(NC3CCCC3)cccc21 [Vn]	> 20	> 20	> 20			
O=C1c2cccc(NCc3ccccc3)c2C(=O)c2c(NCc3ccccc3)cccc21 [Vo]	1.66 ± 0.09	> 20	> 20			
O=C1c2cccc(NCCc3ccccc3)c2C(=O)c2c(NCCc3ccccc3)cccc21 [Vp]	> 20	> 20	> 20			
